The text below walks through data of PubChem BioAssay (NCI).

Among the test systems are HCC-2998 colon; HL-60(TB) leukemia; K-562 leukemia; MDA-MB-435; NCI/ADR-RES ovarian; OVCAR-3 ovarian; OVCAR-4 ovarian; RXF 393 renal; SF-295 CNS; SF-539 CNS; SK-MEL-5 melanoma; SNB-75 CNS; U251 CNS.
What all share (assay): DTP human tumour cell line panel, 48 h

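Dose response: 5 concentrations. Exposure: 48 h. Format: 96-well plates. Endpoint: linear interpolation; highest concentration if not reached. TGI denotes the concentration required for complete inhibition of growth.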

For orientation: TGI means the concentration giving total growth inhibition.

`CCOC(=O)NNC1(SC)NC(=O)c2c(cc(Cl)oc2=O)O1` (centres undefined): the TGI with HCC-2998 colon stood at 16.1 µM; in the test with HL-60(TB) leukemia it was 3.6 µM; in the test with K-562 leukemia, 9.07 µM; with MDA-MB-435 it was 17.6 µM; with NCI/ADR-RES ovarian, 25.7 µM; in the test on OVCAR-3 ovarian, 10.9 µM. In addition, the TGI in the test on OVCAR-4 ovarian is 18.9 µM; in the test on RXF 393 renal it was 6.93 µM; in the test on SF-295 CNS, 25.9 µM; in the test on SF-539 CNS it was 4.57 µM; in the test on SK-MEL-5 melanoma it was more than 45.5 µM; in the test on SNB-75 CNS, 22.2 µM. In the test with U251 CNS, this molecule gave a TGI of 25.5 µM.

On to `CCO[C@H]1C[C@@H](c2ccccc2)[C@]2(C)C[C@H](C(=O)OC)ON2O1`, for which the TGI in the test with HL-60(TB) leukemia, with K-562 leukemia, in the test on MDA-MB-435, with NCI/ADR-RES ovarian, in the test on OVCAR-3 ovarian and in the test on OVCAR-4 ovarian was more than 100 µM throughout. The TGI in the test on RXF 393 renal, with SF-295 CNS, in the test on SF-539 CNS, in the test with SK-MEL-5 melanoma and in the test with U251 CNS was more than 100 µM throughout.

Take `CCC(/C=C/c1ccccc1)=N\NC(=S)N/N=C(/C=C/c1ccccc1)CC`: the TGI in the test with HCC-2998 colon is more than 100 µM; in the test on HL-60(TB) leukemia it was 62.7 µM; with K-562 leukemia, 98.8 µM; in the test on MDA-MB-435 it was more than 100 µM; with NCI/ADR-RES ovarian it was more than 100 µM; with OVCAR-3 ovarian, more than 100 µM. For the same molecule, the TGI was more than 100 µM with OVCAR-4 ovarian; more than 100 µM in the test on RXF 393 renal; more than 100 µM in the test with SF-295 CNS; 91.6 µM in the test on SF-539 CNS; more than 100 µM with SK-MEL-5 melanoma; more than 100 µM with SNB-75 CNS. Moreover, the TGI in the test on U251 CNS is more than 100 µM.

For the molecule `COc1ccc(CN=C2Nc3ccncc3S(=O)(=O)N2c2ccccc2)cc1`, the TGI in the test with HCC-2998 colon is 54.9 µM; with HL-60(TB) leukemia, 36.8 µM; in the test on K-562 leukemia it was 93.2 µM; with MDA-MB-435, 80.7 µM; in the test with NCI/ADR-RES ovarian it was more than 100 µM; with OVCAR-3 ovarian, more than 100 µM. For the same molecule, the TGI in the test on OVCAR-4 ovarian was more than 100 µM; in the test with RXF 393 renal, more than 100 µM; in the test on SF-295 CNS, more than 100 µM; in the test on SF-539 CNS it was 33.9 µM; in the test on SK-MEL-5 melanoma it was 47.2 µM; in the test on SNB-75 CNS, more than 100 µM. In the test on U251 CNS, the concentration for total growth inhibition (TGI) was more than 100 µM.

With `COc1ccc(C2c3cc4c(cc3OC(N3CCOCC3)C2C)OCO4)c(OC)c1` (centres undefined), the total growth inhibition concentration (TGI) is 14.5 µM in the test with HCC-2998 colon; more than 31.4 µM with HL-60(TB) leukemia; 25 µM with K-562 leukemia; 8.83 µM in the test with MDA-MB-435; 9.68 µM in the test with NCI/ADR-RES ovarian; 13.9 µM in the test with OVCAR-3 ovarian. In addition, the TGI in the test on OVCAR-4 ovarian is more than 100 µM; in the test with RXF 393 renal, 10.7 µM; in the test with SF-295 CNS it was 16.3 µM; in the test with SF-539 CNS, 9.64 µM; in the test with SK-MEL-5 melanoma it was 11.5 µM; with SNB-75 CNS it was 23.4 µM. Further, the TGI in the test with U251 CNS came to 15.5 µM.

Take `CC1C=C(NCC2(CO)CCC2)NC(N)=N1` (centres undefined): the TGI in the test with HCC-2998 colon, in the test on HL-60(TB) leukemia, in the test with K-562 leukemia, in the test with MDA-MB-435, with NCI/ADR-RES ovarian and in the test on OVCAR-3 ovarian was more than 100 µM in each case. The TGI with OVCAR-4 ovarian, with RXF 393 renal, in the test on SF-295 CNS, in the test with SK-MEL-5 melanoma, in the test with SNB-75 CNS and in the test on U251 CNS was more than 100 µM each time.

Take `CO/N=C1/C(n2[nH]c(=O)n(-c3ccccc3)c2=O)C2C=CC1n1c(=O)n(-c3ccccc3)c(=O)n12` (centres undefined): the TGI with HCC-2998 colon, in the test with HL-60(TB) leukemia, with K-562 leukemia, with MDA-MB-435, in the test on NCI/ADR-RES ovarian and in the test on OVCAR-3 ovarian was more than 100 µM in each case. In addition, the TGI in the test with OVCAR-4 ovarian, in the test with RXF 393 renal, in the test on SF-539 CNS, with SK-MEL-5 melanoma, in the test on SNB-75 CNS and with U251 CNS was more than 100 µM in each case.

As to `CCOC(=O)c1ccc(Nc2nc3ccc(C(F)(F)F)cc3nc2-c2ccccc2)cc1`, the TGI in the test on HCC-2998 colon, in the test on HL-60(TB) leukemia, with K-562 leukemia, with MDA-MB-435, in the test with NCI/ADR-RES ovarian and with OVCAR-3 ovarian was more than 100 µM each time. For the same molecule, the TGI with RXF 393 renal, in the test with SF-295 CNS, in the test on SF-539 CNS, with SK-MEL-5 melanoma, in the test with SNB-75 CNS and in the test with U251 CNS was more than 100 µM throughout.

On to `COc1cccc2c1C(=O)c1ccc3cc(CO)cc(O)c3c1C2=O`, for which the TGI in the test on HL-60(TB) leukemia amounted to 0.461 µM; in the test with K-562 leukemia it was 3.74 µM; with MDA-MB-435, 0.359 µM; in the test with NCI/ADR-RES ovarian, 2.28 µM; with OVCAR-3 ovarian, 0.497 µM; in the test with OVCAR-4 ovarian it was 2.03 µM. Also, the TGI amounted to 7.09 µM with RXF 393 renal; 7.44 µM in the test with SF-295 CNS; 1.44 µM with SF-539 CNS; 0.508 µM in the test with SK-MEL-5 melanoma; 9.4 µM in the test with SNB-75 CNS; 5.41 µM in the test on U251 CNS.

Take `CC1(C)SC2C(NC(=O)Cc3ccccc3)C(=O)N2C1C(=O)O` (centres undefined): the TGI in the test on HL-60(TB) leukemia, with K-562 leukemia, in the test with MDA-MB-435, in the test with NCI/ADR-RES ovarian, with OVCAR-3 ovarian and in the test with OVCAR-4 ovarian was more than 100 µM each time. The TGI in the test with RXF 393 renal, in the test on SF-295 CNS, in the test on SF-539 CNS, in the test on SK-MEL-5 melanoma, in the test on SNB-75 CNS and in the test with U251 CNS was more than 100 µM each time.

Regarding `OCCCN(CCc1ccc(Cl)c(Cl)c1)CCN1CCCC1`, the TGI in the test on HCC-2998 colon is 32.9 µM; with HL-60(TB) leukemia, more than 100 µM; with K-562 leukemia, 46.2 µM; with MDA-MB-435 it was 53.4 µM; with NCI/ADR-RES ovarian it was more than 100 µM; in the test on OVCAR-3 ovarian it was more than 100 µM. Moreover, the TGI in the test on OVCAR-4 ovarian, in the test on RXF 393 renal, in the test with SF-295 CNS, in the test on SNB-75 CNS and in the test with U251 CNS was more than 100 µM throughout.
